# Experimental data reported in ChEMBL document CHEMBL3879901, “Substituted isoquinolin-1(2H)-ones, and methods of use thereof” (2012).
# Legend:
# [1] = target: PI3-kinase p110-delta/p85-alpha (Homo sapiens, UniProt O00329); assay: Inhibition of N-terminal His6-tagged recombinant full-length human p110delta/untagged recombinant full length p85alpha expressed in baculovirus infected Sf21 cells using phosphatidylinositol as substrate in presence of gamma-32P-ATP after 5 mins by thin layer chromatographic method
# Chain of PI3-kinase p110-delta/p85-alpha (P27986 whole entry): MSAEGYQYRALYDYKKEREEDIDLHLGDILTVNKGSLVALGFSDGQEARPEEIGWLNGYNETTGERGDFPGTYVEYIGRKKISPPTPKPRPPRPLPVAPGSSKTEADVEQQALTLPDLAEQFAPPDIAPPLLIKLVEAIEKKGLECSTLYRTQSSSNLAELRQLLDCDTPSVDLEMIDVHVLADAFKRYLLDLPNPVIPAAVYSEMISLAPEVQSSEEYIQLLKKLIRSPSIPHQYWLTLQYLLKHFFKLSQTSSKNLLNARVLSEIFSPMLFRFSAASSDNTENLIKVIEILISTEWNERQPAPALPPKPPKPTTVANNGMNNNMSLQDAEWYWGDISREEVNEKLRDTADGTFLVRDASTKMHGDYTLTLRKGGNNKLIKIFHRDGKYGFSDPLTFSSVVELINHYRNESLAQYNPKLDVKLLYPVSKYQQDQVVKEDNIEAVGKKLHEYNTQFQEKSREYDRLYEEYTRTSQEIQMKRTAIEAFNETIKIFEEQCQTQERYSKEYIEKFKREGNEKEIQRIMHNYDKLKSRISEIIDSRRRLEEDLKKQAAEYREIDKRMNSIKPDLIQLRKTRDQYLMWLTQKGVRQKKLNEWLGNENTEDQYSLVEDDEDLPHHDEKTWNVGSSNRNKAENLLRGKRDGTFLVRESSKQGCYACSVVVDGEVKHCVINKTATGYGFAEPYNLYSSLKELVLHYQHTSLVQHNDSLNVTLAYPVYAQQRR
# Chain of PI3-kinase p110-delta/p85-alpha (O00329 whole entry): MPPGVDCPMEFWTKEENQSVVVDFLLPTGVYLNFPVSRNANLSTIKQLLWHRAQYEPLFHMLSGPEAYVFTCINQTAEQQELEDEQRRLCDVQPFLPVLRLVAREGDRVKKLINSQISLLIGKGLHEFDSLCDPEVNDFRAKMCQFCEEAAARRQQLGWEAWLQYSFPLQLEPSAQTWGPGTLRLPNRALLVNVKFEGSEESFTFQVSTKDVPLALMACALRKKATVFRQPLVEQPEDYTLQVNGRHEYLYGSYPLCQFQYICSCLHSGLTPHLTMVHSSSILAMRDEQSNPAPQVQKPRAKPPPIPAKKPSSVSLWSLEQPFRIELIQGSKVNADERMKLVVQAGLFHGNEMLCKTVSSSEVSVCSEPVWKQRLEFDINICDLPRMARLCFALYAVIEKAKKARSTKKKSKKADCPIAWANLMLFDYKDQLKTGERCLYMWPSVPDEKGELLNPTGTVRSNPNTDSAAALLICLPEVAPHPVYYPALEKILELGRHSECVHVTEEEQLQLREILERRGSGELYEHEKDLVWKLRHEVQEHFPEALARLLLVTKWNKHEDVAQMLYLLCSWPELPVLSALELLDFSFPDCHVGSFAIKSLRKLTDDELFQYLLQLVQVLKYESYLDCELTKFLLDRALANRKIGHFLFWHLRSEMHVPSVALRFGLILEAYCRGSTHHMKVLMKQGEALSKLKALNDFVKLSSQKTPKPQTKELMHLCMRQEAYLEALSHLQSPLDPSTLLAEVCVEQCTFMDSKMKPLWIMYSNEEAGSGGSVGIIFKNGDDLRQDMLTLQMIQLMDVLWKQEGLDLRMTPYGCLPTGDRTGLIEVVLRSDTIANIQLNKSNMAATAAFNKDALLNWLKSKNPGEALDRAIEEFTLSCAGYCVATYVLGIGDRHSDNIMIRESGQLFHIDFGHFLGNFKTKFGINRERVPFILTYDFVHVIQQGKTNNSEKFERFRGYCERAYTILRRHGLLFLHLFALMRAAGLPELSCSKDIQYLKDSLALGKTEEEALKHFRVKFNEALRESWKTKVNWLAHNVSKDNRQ
# [2] = Antiproliferative activity against Balb/c mouse splenic B cells preincubated for 30 mins followed by LPS or F(ab')2 donkey anti-mouse IgM and recombinant mouse IL4 stimulation measured after 72 hrs by Alamar Blue reduction assay; assay type: functional, cell-based
# [3] = target: Phosphatidylinositol 4,5-bisphosphate 3-kinase catalytic subunit gamma isoform (Homo sapiens, UniProt P48736); assay: Inhibition of recombinant human C-terminal His6-tagged p110gamma expressed in insect cells using phosphatidylinositol as substrate in presence of gamma-32P-ATP after 5 mins by thin layer chromatographic method
# Chain of Phosphatidylinositol 4,5-bisphosphate 3-kinase catalytic subunit gamma isoform (P48736 whole entry, canonical isoform): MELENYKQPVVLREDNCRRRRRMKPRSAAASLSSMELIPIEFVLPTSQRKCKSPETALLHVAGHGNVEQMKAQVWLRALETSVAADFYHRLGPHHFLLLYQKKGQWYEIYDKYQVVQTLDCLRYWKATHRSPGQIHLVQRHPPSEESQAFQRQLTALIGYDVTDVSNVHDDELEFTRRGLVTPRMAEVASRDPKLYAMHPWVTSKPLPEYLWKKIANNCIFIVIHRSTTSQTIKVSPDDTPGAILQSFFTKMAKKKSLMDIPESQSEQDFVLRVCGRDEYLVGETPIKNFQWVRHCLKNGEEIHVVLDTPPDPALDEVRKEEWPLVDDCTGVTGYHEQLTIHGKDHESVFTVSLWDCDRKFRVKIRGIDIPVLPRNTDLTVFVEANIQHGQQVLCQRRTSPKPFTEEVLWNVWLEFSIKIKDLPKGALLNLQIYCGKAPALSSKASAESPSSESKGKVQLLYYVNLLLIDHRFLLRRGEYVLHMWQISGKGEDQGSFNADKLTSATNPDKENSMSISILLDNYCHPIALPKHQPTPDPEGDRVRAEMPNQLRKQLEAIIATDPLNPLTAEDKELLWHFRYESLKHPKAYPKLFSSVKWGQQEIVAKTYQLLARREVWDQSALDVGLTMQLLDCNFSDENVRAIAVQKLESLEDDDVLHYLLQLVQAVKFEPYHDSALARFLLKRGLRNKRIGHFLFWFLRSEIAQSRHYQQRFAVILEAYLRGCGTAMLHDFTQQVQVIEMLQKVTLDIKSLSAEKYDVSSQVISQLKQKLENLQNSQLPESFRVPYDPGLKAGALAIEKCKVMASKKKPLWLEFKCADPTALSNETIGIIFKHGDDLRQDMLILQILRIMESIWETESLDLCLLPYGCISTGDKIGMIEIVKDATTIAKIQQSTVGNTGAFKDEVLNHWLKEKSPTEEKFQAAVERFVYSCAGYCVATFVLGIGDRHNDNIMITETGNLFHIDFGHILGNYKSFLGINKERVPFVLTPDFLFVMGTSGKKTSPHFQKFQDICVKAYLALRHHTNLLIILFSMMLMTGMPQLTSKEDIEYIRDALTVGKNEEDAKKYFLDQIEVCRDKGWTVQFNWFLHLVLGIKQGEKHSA
# [4] = target: PI3K p110 beta/p85 alpha (Homo sapiens, UniProt P42338); assay: Inhibition of N-terminal His6-tagged recombinant full-length human p110beta/untagged recombinant full length p85alpha expressed in baculovirus infected Sf21 cells using phosphatidylinositol as substrate in presence of gamma-32P-ATP after 5 mins by thin layer chromatographic method
# Chain of PI3K p110 beta/p85 alpha (P27986 whole entry): as the sequence (P27986 whole entry) above
# Chain of PI3K p110 beta/p85 alpha (P42338 whole entry): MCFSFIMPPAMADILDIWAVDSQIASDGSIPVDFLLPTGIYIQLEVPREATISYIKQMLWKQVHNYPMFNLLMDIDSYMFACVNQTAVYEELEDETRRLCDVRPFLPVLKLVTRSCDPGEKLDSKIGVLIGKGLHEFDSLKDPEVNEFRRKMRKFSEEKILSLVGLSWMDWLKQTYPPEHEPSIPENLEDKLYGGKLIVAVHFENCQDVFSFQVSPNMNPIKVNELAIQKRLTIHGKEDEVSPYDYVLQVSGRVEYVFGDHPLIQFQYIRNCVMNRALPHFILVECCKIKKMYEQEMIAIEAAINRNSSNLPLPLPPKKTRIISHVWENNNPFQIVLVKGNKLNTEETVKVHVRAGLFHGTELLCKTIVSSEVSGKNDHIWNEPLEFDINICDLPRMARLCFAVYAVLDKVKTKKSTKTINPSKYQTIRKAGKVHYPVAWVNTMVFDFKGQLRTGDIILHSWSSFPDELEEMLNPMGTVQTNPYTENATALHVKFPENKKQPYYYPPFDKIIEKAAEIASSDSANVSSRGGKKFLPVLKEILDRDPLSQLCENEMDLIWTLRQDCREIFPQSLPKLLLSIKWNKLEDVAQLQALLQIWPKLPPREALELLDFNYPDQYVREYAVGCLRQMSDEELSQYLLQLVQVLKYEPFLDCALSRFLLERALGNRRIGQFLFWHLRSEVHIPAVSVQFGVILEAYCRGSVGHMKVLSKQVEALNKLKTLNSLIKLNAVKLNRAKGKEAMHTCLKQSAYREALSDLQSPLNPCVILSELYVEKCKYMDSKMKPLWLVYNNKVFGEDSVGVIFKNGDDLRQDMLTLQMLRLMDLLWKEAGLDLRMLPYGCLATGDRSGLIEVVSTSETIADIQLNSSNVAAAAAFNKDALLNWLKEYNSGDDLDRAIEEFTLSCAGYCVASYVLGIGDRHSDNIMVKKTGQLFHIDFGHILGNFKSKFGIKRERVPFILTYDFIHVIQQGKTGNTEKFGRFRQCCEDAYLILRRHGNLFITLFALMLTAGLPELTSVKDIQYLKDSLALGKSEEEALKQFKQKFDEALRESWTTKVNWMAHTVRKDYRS
# [5] = target: PI3-kinase p110-alpha/p85-alpha (Homo sapiens, UniProt P42336); assay: Inhibition of N-terminal His6-tagged recombinant full-length human p110alpha/untagged recombinant full length human p85alpha expressed in baculovirus infected Sf21 cells using phosphatidylinositol as substrate in presence of gamma-32P-ATP after 5 mins by thin layer chromatographic method
# Chain of PI3-kinase p110-alpha/p85-alpha (P27986 whole entry): as the sequence (P27986 whole entry) above
# Chain of PI3-kinase p110-alpha/p85-alpha (P42336 whole entry): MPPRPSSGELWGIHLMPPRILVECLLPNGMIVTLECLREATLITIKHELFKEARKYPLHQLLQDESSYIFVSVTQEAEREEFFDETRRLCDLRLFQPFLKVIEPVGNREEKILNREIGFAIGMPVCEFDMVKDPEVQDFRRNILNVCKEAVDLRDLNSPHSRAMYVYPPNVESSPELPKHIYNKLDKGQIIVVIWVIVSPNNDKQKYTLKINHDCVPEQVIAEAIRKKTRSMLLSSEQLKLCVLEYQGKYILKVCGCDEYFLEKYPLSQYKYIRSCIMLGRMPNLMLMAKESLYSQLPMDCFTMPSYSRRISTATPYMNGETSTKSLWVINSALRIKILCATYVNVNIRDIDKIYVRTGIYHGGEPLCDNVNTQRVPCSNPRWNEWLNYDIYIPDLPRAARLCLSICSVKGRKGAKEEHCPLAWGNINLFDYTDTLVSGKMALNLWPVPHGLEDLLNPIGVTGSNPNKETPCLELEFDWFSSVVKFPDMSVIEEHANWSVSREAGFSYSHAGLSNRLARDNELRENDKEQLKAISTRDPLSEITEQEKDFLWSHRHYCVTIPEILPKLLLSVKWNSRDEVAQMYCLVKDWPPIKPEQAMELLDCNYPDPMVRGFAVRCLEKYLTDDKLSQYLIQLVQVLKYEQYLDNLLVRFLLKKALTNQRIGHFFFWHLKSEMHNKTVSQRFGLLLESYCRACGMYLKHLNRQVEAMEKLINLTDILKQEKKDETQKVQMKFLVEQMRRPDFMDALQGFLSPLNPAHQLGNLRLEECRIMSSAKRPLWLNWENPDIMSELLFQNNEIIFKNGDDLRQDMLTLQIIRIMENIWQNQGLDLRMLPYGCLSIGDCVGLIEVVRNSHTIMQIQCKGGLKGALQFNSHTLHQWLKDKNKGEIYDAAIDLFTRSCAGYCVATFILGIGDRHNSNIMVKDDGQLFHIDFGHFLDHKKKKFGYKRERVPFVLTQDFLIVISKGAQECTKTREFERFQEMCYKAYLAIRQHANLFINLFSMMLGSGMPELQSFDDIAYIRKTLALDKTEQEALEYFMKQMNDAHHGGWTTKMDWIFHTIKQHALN
Structure (SMILES),IC50 [1],IC50 [3],IC50 [4],IC50 [5],EC50 [2]
Cc1cccnc1-n1c(Cn2nc(C#C[C@@H](C)O)c3c(N)ncnc32)cc2cccc(C)c2c1=O,< 1000 nM,> 10000 nM,> 10000 nM,> 10000 nM,< 1000 nM
Cc1ccccc1-n1c(Cn2nc(I)c3c(N)ncnc32)cc2cccc(F)c2c1=O,< 1000 nM,< 10000 nM,> 10000 nM,> 10000 nM,< 1000 nM
COc1cccc(-c2nn(Cc3cc4cccc(C)c4c(=O)n3-c3ccccc3C)c3ncnc(N)c23)c1,< 1000 nM,< 1000 nM,< 10000 nM,> 10000 nM,< 1000 nM
Cc1ccccc1-n1c(Cn2nc(-c3cn[nH]c3)c3c(N)ncnc32)cc2ccccc2c1=O,< 1000 nM,< 10000 nM,> 10000 nM,> 10000 nM,< 100 nM
Cc1ccccc1-n1c(Cn2nc(C#C[C@@H](C)O)c3c(N)ncnc32)cc2cccc(F)c2c1=O,< 1000 nM,> 10000 nM,> 10000 nM,> 10000 nM,< 10000 nM
Cc1cccc2cc(Cn3nc(-c4cn[nH]c4)c4c(N)ncnc43)n(-c3ccccc3Cl)c(=O)c12,100 to 10000 nM,< 1000 nM,> 10000 nM,> 10000 nM,< 100 nM
Cc1ccccc1-n1c(Cn2nc(-c3cccc(Cl)c3)c3c(N)ncnc32)cc2cccc(C)c2c1=O,< 10000 nM,< 1000 nM,> 10000 nM,> 10000 nM,< 10000 nM
Cc1cccc2cc(Cn3nc(Cl)c4c(N)ncnc43)n(-c3ccccc3F)c(=O)c12,< 1000 nM,< 10000 nM,> 10000 nM,> 10000 nM,< 1000 nM
Cc1ccccc1-n1c(Cn2nc(-c3cccc(F)c3)c3c(N)ncnc32)cc2cccc(C)c2c1=O,< 10000 nM,< 1000 nM,> 10000 nM,> 10000 nM,< 1000 nM
Cc1cccc2cc(Cn3nc(C#N)c4c(N)ncnc43)n(-c3ccccc3F)c(=O)c12,< 100 nM,> 10000 nM,> 10000 nM,> 10000 nM,< 1000 nM
Cc1ccccc1-n1c(Cn2nc(-c3ccc(F)cc3)c3c(N)ncnc32)cc2cccc(C)c2c1=O,< 10000 nM,< 1000 nM,> 10000 nM,> 10000 nM,< 10000 nM
Cc1cccc2cc(Cn3nc(-c4cccc(F)c4)c4c(N)ncnc43)n(-c3ccccc3F)c(=O)c12,< 10000 nM,< 10000 nM,> 10000 nM,> 10000 nM,< 10000 nM
COc1cc(-c2nn(Cc3cc4cccc(C)c4c(=O)n3-c3ccccc3F)c3ncnc(N)c23)ccc1Cl,< 10000 nM,< 1000 nM,> 10000 nM,> 10000 nM,< 10000 nM
Cc1cccc2cc(Cn3nc(/C=C4/SC(=O)NC4=O)c4c(N)ncnc43)n(-c3ccccc3F)c(=O)c12,< 100 nM,< 100 nM,< 10000 nM,< 10000 nM,< 100 nM
Cc1cccc2cc(Cn3nc(-c4ccc(F)c(O)c4)c4c(N)ncnc43)n(-c3ccccc3F)c(=O)c12,< 100 nM,< 1000 nM,> 10000 nM,> 10000 nM,< 1000 nM
Cc1cccc2cc(Cn3nc(-c4cn[nH]c4)c4c(N)ncnc43)n(-c3ccccc3F)c(=O)c12,< 100 nM,< 1000 nM,< 10000 nM,> 10000 nM,< 1000 nM
Cc1cccc2cc(Cn3nc(I)c4c(N)ncnc43)n(C)c(=O)c12,< 1000 nM,< 10000 nM,> 10000 nM,> 10000 nM,< 1000 nM
COc1ccccc1-n1c(Cn2nc(I)c3c(N)ncnc32)cc2cccc(C)c2c1=O,< 100 nM,< 1000 nM,> 10000 nM,> 10000 nM,< 1000 nM
Cc1cccc2cc(Cn3nc(C#C[C@@H](C)O)c4c(N)ncnc43)n(-c3ccccc3F)c(=O)c12,< 100 nM,< 1000 nM,> 10000 nM,> 10000 nM,< 1000 nM

# The next lines start with results.
IC50 [1],IC50 [3],IC50 [4],IC50 [5],Structure (SMILES),EC50 [2]
< 100 nM,< 100 nM,< 10000 nM,> 10000 nM,Cc1ccccc1-n1c(Cn2nc(/C=C/C(N)=O)c3c(N)ncnc32)cc2cccc(C)c2c1=O,< 100 nM
< 100 nM,< 1000 nM,> 10000 nM,> 10000 nM,Cc1cccnc1-n1c(Cn2nc(-c3cc(O)cc(F)c3)c3c(N)ncnc32)cc2ccccc2c1=O,< 100 nM
< 100 nM,< 1000 nM,> 10000 nM,> 10000 nM,Cc1cccc2cc(Cn3nc(C#CCO)c4c(N)ncnc43)n(-c3ccccc3F)c(=O)c12,< 1000 nM
< 100 nM,< 1000 nM,< 1000 nM,< 10000 nM,Cc1cccc2cc(Cn3nc(-c4cc(O)cc(F)c4)c4c(N)ncnc43)n(C(C)C)c(=O)c12,< 100 nM
< 100 nM,< 1000 nM,< 10000 nM,> 10000 nM,CCc1ccccc1-n1c(Cn2nc(C#C[C@@H](C)O)c3c(N)ncnc32)cc2cccc(C)c2c1=O,< 100 nM
< 100 nM,< 10000 nM,> 10000 nM,> 10000 nM,Cc1ccccc1-n1c(Cn2nc(C#C[C@@H](C)O)c3c(N)ncnc32)cc2cccc(C)c2c1=O,< 100 nM
< 100 nM,< 1000 nM,> 10000 nM,> 10000 nM,Cc1cccc2cc(Cn3nc(-c4cnn(CCO)c4)c4c(N)ncnc43)n(-c3ccccc3F)c(=O)c12,1000 to 10000 nM
< 100 nM,< 1000 nM,> 10000 nM,> 10000 nM,C=Cc1nn(Cc2cc3cccc(C)c3c(=O)n2-c2ccccc2C)c2ncnc(N)c12,< 100 nM
< 100 nM,< 1000 nM,> 10000 nM,> 10000 nM,Cc1cccc2cc(Cn3nc(C#C[C@@H](C)O)c4c(N)ncnc43)n(-c3ccccc3Cl)c(=O)c12,< 1000 nM
< 100 nM,< 1000 nM,< 10000 nM,< 10000 nM,Cc1cccc2cc(Cn3nc(-c4cc(O)cc(F)c4)c4c(N)ncnc43)n(-c3ccccc3OCCN3CCOCC3)c(=O)c12,< 100 nM
< 100 nM,< 1000 nM,> 10000 nM,> 10000 nM,Cc1cccc2cc(Cn3nc(-c4cccc(O)c4)c4c(N)ncnc43)n(-c3ccccc3F)c(=O)c12,< 1000 nM
< 100 nM,< 100 nM,< 10000 nM,< 10000 nM,Cc1ccccc1-n1c(Cn2nc(-c3ccc4oc(N)nc4c3)c3c(N)ncnc32)cc2cccc(C)c2c1=O,< 1000 nM
< 100 nM,< 10000 nM,> 10000 nM,> 10000 nM,Cc1cccc2cc(Cn3nc(C#C[C@@H](C)O)c4c(N)ncnc43)n(-c3ccccc3O)c(=O)c12,< 1000 nM
< 100 nM,100 to 1000 nM,> 10000 nM,> 10000 nM,Cc1ccccc1-n1c(Cn2nc(I)c3c(N)ncnc32)cc2cccc(C)c2c1=O,100 to 1000 nM
< 100 nM,< 1000 nM,< 10000 nM,> 10000 nM,Cc1ccccc1-n1c(Cn2nc(-c3cc(O)cc(F)c3)c3c(N)ncnc32)cc2cccc(F)c2c1=O,< 100 nM
< 100 nM,< 1000 nM,< 1000 nM,> 10000 nM,Cc1cccc2cc(Cn3nc(C#C[C@@H](C)O)c4c(N)ncnc43)n(C3CC3)c(=O)c12,< 1000 nM
< 100 nM,< 100 nM,< 10000 nM,< 10000 nM,Cc1ccccc1-n1c(Cn2nc(/C=C3/SC(=O)NC3=O)c3c(N)ncnc32)cc2cccc(C)c2c1=O,< 100 nM
< 100 nM,< 1000 nM,> 10000 nM,> 10000 nM,Cc1cccc2cc(Cn3nc(I)c4c(N)ncnc43)n(-c3ccccc3OCCN3CCOCC3)c(=O)c12,< 1000 nM
< 100 nM,< 1000 nM,> 10000 nM,> 10000 nM,COc1ccccc1-n1c(Cn2nc(C#C[C@@H](C)O)c3c(N)ncnc32)cc2cccc(C)c2c1=O,< 1000 nM
< 100 nM,< 1000 nM,> 10000 nM,> 10000 nM,Cc1cccc2cc(Cn3nc(-c4cn[nH]c4)c4c(N)ncnc43)n(-c3cccc(F)c3)c(=O)c12,< 100 nM
< 100 nM,< 10000 nM,< 10000 nM,> 10000 nM,Cc1cccc2cc(Cn3nc(C#C[C@@H](C)O)c4c(N)ncnc43)n(C(C)C)c(=O)c12,< 1000 nM
< 100 nM,< 10000 nM,> 10000 nM,> 10000 nM,Cc1ccccc1-n1c(Cn2nc(C#N)c3c(N)ncnc32)cc2cccc(C)c2c1=O,< 100 nM
< 100 nM,< 10000 nM,> 10000 nM,> 10000 nM,Cc1cccc2cc(Cn3nc(I)c4c(N)ncnc43)n(C3CCC3)c(=O)c12,< 1000 nM
< 100 nM,< 1000 nM,> 10000 nM,> 10000 nM,Cc1ccccc1-n1c(Cn2nc(C#CCO)c3c(N)ncnc32)cc2cccc(C)c2c1=O,< 1000 nM
